Data taken from US3953456A, “Carbostyril derivatives and process for preparing the same” (Otsuka Pharmaceutical Co., Ltd., priority 1972, dated 1976).
Where two headings read alike, the source gives them in different places.

What was measured:
isoprenaline = assay: Antagonistic activity against isoprenaline (β-blockers screening method) in anesthesized dogs: % inhibition of pulse increase and blood pressure reduction; format: in vivo, male mongrel adult dogs; settings: isoprenaline 0.3 γ/Kg after 5 minutes; for Antagonistic Activity Against Isoprenaline (% Inhibition), Blood Pressure: pressure reduction by isoprenaline alone = 100%; for Antagonistic Activity Against Isoprenaline (% Inhibition), Pulse: pulse increase by isoprenaline alone = 100%
Experimental: The antagonistic activity of the compounds of this invention against isoprenaline was determined using the β-blockers screening method (C. E. Powell, I. H. Slater : J. Pharmac., 122, 480 (1958 )).
Male mongrel adult dogs, weighing 13 to 20 Kg were anesthesized with 30 mg/Kg of body weight of pentabarbital sodium administered intravenously. Each of the test compounds was then administered to the anesthesized dog at a dosage level of 30γ or 100γ/Kg of body weight from the femoral vein and after 5 minutes isoprenaline was administered to the dog through the femoral vein at a dosage level of 0.3 γ/Kg of body weight. the blood pressure and the pulse (H.R.) were then recorded on a polygraph through a pressure transducer and a tachometer operated by the R wave of the electrocardiograph, respectively, to determine % inhibitory activity of the test compound against the pulse increase and the pressure reduction induced by isoprenaline.
*The pulse increase and the pressure reduction induced by the
administration of isoprenaline alone are referred to as 100%.

[1] = Acute toxicity in rat (LD50, 50% lethal dose); settings: in vivo, rat (Wister strain)
Experimental: Also, the acute toxicity in rat (Wister strain) was determined in a standard manner with respect to representative compounds of this invention.

| SMILES | Antagonistic Activity Against Isoprenaline (% Inhibition), Blood Pressure (isoprenaline; 30 γ/Kg from the femoral vein) | Antagonistic Activity Against Isoprenaline (% Inhibition), Pulse (isoprenaline; 30 γ/Kg from the femoral vein) | LD50 ([1]; iv, i.v., read-out: LD50 i.v.) | LD50 ([1]; po, p.o., read-out: LD50 p.o.) | Antagonistic Activity Against Isoprenaline (% Inhibition), Blood Pressure (isoprenaline; 100 γ/Kg from the femoral vein) | Antagonistic Activity Against Isoprenaline (% Inhibition), Pulse (isoprenaline; 100 γ/Kg from the femoral vein) |
| --- | --- | --- | --- | --- | --- | --- |
| CC(C)NCC(O)COc1cccc2[nH]c(=O)ccc12 (centres unmarked) [5-(2-hydroxy-3-isopropylamino)propoxycarbostyril] | 89.2% | 87.6% | 162 mg/kg | 2000 mg/kg | – | – |
| CC(C)(C)NCC(O)COc1cccc2[nH]c(=O)ccc12 (centres unmarked) [5-(2-hydroxy-3-tert-butylamino)propoxycarbostyril] | 97.9% | 96.1% | 136 mg/kg | 1800 mg/kg | – | – |
| CC(C)NCC(O)COc1cccc2ccc(=O)[nH]c12 (centres unmarked) [8-(2-hydroxy-3-isopropylamino)propoxycarbostyril] | – | – | 178 mg/kg | 2000 mg/kg | 66.2% | 57.4% |
| CCC(C)NCC(O)COc1cccc2ccc(=O)[nH]c12 (centres unmarked) [8-(2-hydroxy-3-sec-butylamino)propoxycarbostyril] | – | – | 143 mg/kg | 1900 mg/kg | 51.8% | 42.1% |
| CC(C)(C)NCC(O)COc1cccc2ccc(=O)[nH]c12 (centres unmarked) [8-(2-hydroxy-3-tert-butylamino)propoxycarbostyril] | – | – | 148 mg/kg | 1800 mg/kg | 78.3% | 72.6% |
